Results on two compounds are retold here after patent publication US20080064667A1, “OXAZOLE DERIVATIVES OF TETRACYCLINES” (Wyeth, priority 2003, published 2008).

≈ marks a conversion by molar mass, not a printed value.

Common to all, as to test: MIC, broth microdilution (NCCLS)
What all share (format): cell-based

Assay [1] concerns S. pneumoniae* GC4465 (Clinical). The following applies: Streptococcus pneumoniae, Mueller-Hinton II broth, 18-22 hours at 35° C. The gist of the method: (§1)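 Serial antibiotic dilutions in Mueller-Hinton II broth were inoculated to 10^5 CFU/ml. Plates were incubated 18-22 hours at 35° C. in ambient air.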
A further assay has as its system E. coli GC1073 (tet(B)). Conditions: Escherichia coli. In a few lines: as §1
Assay [2] relates to E. coli GC4560 (IMP mutant). Conditions: Escherichia coli. The gist of the method: as §1
Another assay has as its system E. coli GC2270 (tet(M)). Conditions: Escherichia coli. In a few lines:
as §1

Assay [3] has as its system M. catarrhalis* GC6907 (Clinical). Conditions: Moraxella catarrhalis, Mueller-Hinton II broth, 18-22 hours at 35° C. The gist of the method: as §1
In assay [4] the test system is S. pyogenes* GC4563 (Clinical). Conditions: Streptococcus pyogenes, Mueller-Hinton II broth, 18-22 hours at 35° C. The gist of the method:
as §1

The test system of assay [5] is E. faecalis GC2242 (Van-resistant). The following applies: Enterococcus faecalis, Mueller-Hinton II broth, 18-22 hours at 35° C. In a few lines:
as §1

Assay [6] deals with S. aureus GC1079 (tet(K)). Conditions: Staphylococcus aureus, Mueller-Hinton II broth, 18-22 hours at 35° C. The gist of the method: as §1
For assay [7], the system named is E. faecalis GC2267 (tet(L) + (M) + (S)). Conditions: Enterococcus faecalis. The gist of the method: as §1
Assay [8] deals with S. aureus GC6467 (tet(M) + (K)). Conditions: Staphylococcus aureus. The gist of the method:
as §1

Assay [9] has as its system E. coli GC2203 (ATCC Control). Conditions: Escherichia coli, Mueller-Hinton II broth, 18-22 hours at 35° C. The gist of the method: as §1
Assay [10] concerns S. aureus GC4536 (Smith MP -In Vivo). Conditions: Staphylococcus aureus, Mueller-Hinton II broth, 18-22 hours at 35° C. In a few lines:
as §1

For assay [11], the system named is E. faecalis GC4555 (ATCC Control). The following applies: Enterococcus faecalis, Mueller-Hinton II broth, 18-22 hours at 35° C. The gist of the method: as §1
The test system of assay [12] is C. albicans GC3066 ATCC (Control). Conditions: Candida albicans, Mueller-Hinton II broth, 18-22 hours at 35° C.
The test system of assay [13] is E. coli GC4559 (parent GC4560). Conditions: Escherichia coli, Mueller-Hinton II broth, 18-22 hours at 35° C. In a few lines: as §1
In assay [14] the test system is S. aureus GC1131 (Clinical). Conditions: Staphylococcus aureus, Mueller-Hinton II broth, 18-22 hours at 35° C. In a few lines: as §1
The test system of assay [15] is S. aureus GC2216 (ATCC Control). Conditions: Staphylococcus aureus, Mueller-Hinton II broth, 18-22 hours at 35° C. In a few lines: as §1
Assay [16] concerns S. aureus GC6466 (tet(M)). The following applies: Staphylococcus aureus, Mueller-Hinton II broth, 18-22 hours at 35° C. In a few lines:
as §1

Assay [17] relates to H. influenzae<> GC6896 (ATCC Control). Conditions: Haemophilus influenzae, Mueller-Hinton II broth, 18-22 hours at 35° C. In a few lines:
as §1

In assay [18] the test system is S. pneumoniae* GC1894 (Clinical). Conditions: Streptococcus pneumoniae, Mueller-Hinton II broth, 18-22 hours at 35° C. The gist of the method:
as §1

`CCCCCCOc1ccc(-c2nc3cc(N(C)C)c4c(c3o2)C(=O)C2=C(O)[C@]3(O)C(=O)C(C(N)=O)=C(O)[C@@H](N(C)C)[C@@H]3C[C@@H]2C4)cc1` [Example 32, (6aR,7aS,8S,11aS)-5,8-bis(dimethylamino)-2-[4-(hexyloxy)phenyl]-9,11a,12-trihydroxy-11,13-dioxo-6,6a,7,7a,8,11,11a,13-octahydrotetraceno[2,1-d][1,3]oxazole-10-carboxamide]: the MIC in assay [1] is 16 µg/mL (≈ 24.3 µM); with E. coli GC1073 (tet(B)) it was above 64 µg/mL; in assay [2], above 64 µg/mL; against E. coli GC2270 (tet(M)) it was above 64 µg/mL; in [3] it was 32 µg/mL (≈ 48.6 µM); in assay [4], 16 µg/mL (≈ 24.3 µM). For the same compound, the MIC in assay [5] was 64 µg/mL (≈ 97.2 µM); in assay [6], above 64 µg/mL; in assay [7], above 64 µg/mL; in assay [8] it was above 64 µg/mL; in [9] it was above 64 µg/mL; in [10], above 64 µg/mL. In addition, the MIC in assay [11] is 64 µg/mL (≈ 97.2 µM); in assay [12], above 64 µg/mL; in assay [13], above 64 µg/mL; in assay [14], above 64 µg/mL; in assay [15] it was above 64 µg/mL; in assay [16], above 64 µg/mL. In addition, the MIC is above 64 µg/mL in assay [17] and 8 µg/mL (≈ 12.1 µM) in [18].

For the compound `CN(C)c1cc2nc(CCl)oc2c2c1C[C@H]1C[C@H]3[C@H](N(C)C)C(O)=C(C(N)=O)C(=O)[C@@]3(O)C(O)=C1C2=O` [Example 35, (6aR,7aS,8S,11aS)-2-(chloromethyl)-5,8-bis(dimethylamino)-9,11a,12-trihydroxy-11,13-dioxo-6,6a,7,7a,8,11,11a,13-octahydrotetraceno[2,1-d][1,3]oxazole-10-carboxamide], the MIC in assay [1] stood at 0.5 µg/mL (≈ 0.942 µM); against E. coli GC1073 (tet(B)) it was 32 µg/mL (≈ 60.3 µM); in [2] it was 0.5 µg/mL (≈ 0.942 µM); in the assay on E. coli GC2270 (tet(M)), 16 µg/mL (≈ 30.1 µM); in [3], 0.5 µg/mL (≈ 0.942 µM); in assay [4] it was 0.25 µg/mL (≈ 0.471 µM). The MIC in [5] worked out at 1 µg/mL (≈ 1.88 µM); in assay [6] it was 4 µg/mL (≈ 7.53 µM); in [7] it was 4 µg/mL (≈ 7.53 µM); in assay [8] it was 8 µg/mL (≈ 15.1 µM); in assay [9], 4 µg/mL (≈ 7.53 µM); in assay [10], 1 µg/mL (≈ 1.88 µM). For the same compound, the MIC in [11] was 1 µg/mL (≈ 1.88 µM); in assay [12], above 64 µg/mL; in assay [13], 8 µg/mL (≈ 15.1 µM); in assay [14] it was 0.5 µg/mL (≈ 0.942 µM); in [15], 0.5 µg/mL (≈ 0.942 µM); in assay [16], 1 µg/mL (≈ 1.88 µM). Moreover, the MIC was 2 µg/mL (≈ 3.77 µM) in assay [17] and 0.25 µg/mL (≈ 0.471 µM) in assay [18].
